Measured values as given in patent publication US5962487A, “Antipicornaviral compounds and methods for their use and preparation” (Agouron Pharmaceuticals, Inc., priority 1997, dated 1999).

Legend:
[1] = target: T1, Rhinovirus 3C protease (RVP) serotype 16 (Human rhinovirus 16, UniProt Q82122); assay: Inhibition of Rhinovirus Protease, serotype 16 (FRET assay); format: biochemical; conditions: enzyme start experiments, read-out: kobs/I
T1 construct: Recombinant Rhinovirus 3C proteases from serotypes 14, 16, 2 or 89 were prepared; made in house
T1 sequence (Q82122 1511-1693): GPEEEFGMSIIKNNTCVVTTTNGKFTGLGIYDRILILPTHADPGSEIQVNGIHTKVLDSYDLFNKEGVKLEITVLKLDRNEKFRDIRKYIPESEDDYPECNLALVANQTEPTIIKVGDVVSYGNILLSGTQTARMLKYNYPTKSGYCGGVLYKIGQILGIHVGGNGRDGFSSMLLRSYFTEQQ
Method: Stock solutions (50 mM, in DMSO) of various compounds were prepared; dilutions were in the same solvent. Recombinant Rhinovirus 3C proteases from serotypes 14, 16, 2 or 89 were prepared by the following standard chromatographic procedures: (1) ion exchange using Q Sepharose Fast Flow from Pharmacia; (2) affinity chromatography using Affi-Gel Blue from Biorad; and (3) sizing using Sephadex G-100 from Pharmacia. Assays contained 2% DMSO, 50 mM tris pH 7.6, 1 mM EDTA, a compound at the indicated concentrations, approximately 1 μM substrate, and 50-100 nM protease. For Ki determinations, the compound and the enzyme were preincubated for 10 minutes at 30° C. prior to addition of the substrate (substrate start). The kobs/I values were obtained from reactions initiated by addition of enzyme rather than substrate. RVP activity is measured in the fluorescence resonance energy transfer assay. The substrate was (N-terminal) DABCYL-(Gly-Arg-Ala-Val-Phe-Gln-Gly-Pro-Val-Gly)-EDANS. In the uncleaved peptide, the EDANS fluorescence was quenched by the proximal DABCYL moiety. When the peptide was cleaved, the quenching was relieved, and activity was measured as an increase in fluorescence signal.
In the above table, all data is for RVP serotype-14 unless otherwise noted in parentheses. All strains of human rhinovirus (HRV) were purchased from American Type Culture Collection (ATCC), except for serotype 14, which was produced from the infectious cDNA clone constructed and supplied to us by Dr. Roland Rueckert at the Institute for Molecular Virology, University of Wisconsin, Madison, Wis. The column designated INHIB represents the percent inhibition, with the concentration of the compound in μM indicated in parentheses, unless Ki was assigned as designated by (Ki), at 10 minute preincubation with 50 nM RVP prior to addition of substrate was used. The data in the column designated kobs/I was measured from progress curves in enzyme start experiments.

[2] = test system: CVA-21; assay: Anticoxsackieviral HI-HeLa Cell Culture Assay, CVA-21; format: cell-based, Coxsackie strain A-21
Method: (§1) The ability of compounds to protect cells against CVA-21 or CVB-3 infection was measured by the XTT dye reduction method. Briefly, HI-HeLa cells were infected with CVA-21 or CVB-3 at a multiplicity of infection (m.o.i.) of 0.05 (CVA-21) and 0.08 (CVB-3) or mock-infected with medium only. Infected or uninfected cells were resuspended at 4×10^4 cells per mL and incubated with appropriate concentrations of drug. One day later, XTT/PMS was added to test plates, and the amount of formazan produced was quantified spectrophotometrically at 450/650 nm. The EC50 was calculated as the concentration of drug that increased the percentage of formazan production in drug-treated, virus-infected cells to 50% of that produced by drug-free, uninfected cells. The 50% cytotoxic dose (CC50) was calculated as the concentration of drug that decreased the percentage of formazan produced in drug-treated, uninfected cells to 50% of that produced in drug-free, uninfected cells. The therapeutic index (TI) was calculated by dividing the CC50 by the EC50.
(§2) The Coxsackie strains A-21 (CVA-21) and B-3 (CVB-3) were purchased from American Type Culture Collection (ATCC). Virus stocks were propagated and antiviral assays were performed in HI-HeLa cells (ATCC). Cells were grown in Minimal Essential Medium with 10% fetal bovine serum.

[3] = test system: ECHO-11; assay: Echovirus-11 MRC5 Cell Culture Assay; format: cell-based, Echovirus strain 11
Method: (§3) The Echovirus strain 11 (ECHO-11) and Enterovirus strain 70 (ENT-70) were purchased from American Type Culture Collection (ATCC). Virus stocks were propagated and antiviral assays were performed in MRC5 cells (ATCC). Cells were grown in Minimal Essential Medium with 10% fetal bovine serum.
as §1, with “ECHO-11” for “CVA-21”, “ENT-70” for “CVB-3”, “MRC5” for “HI-HeLa”, “0.0013 (ECHO-11)” for “0.05 (CVA-21)”, “0.0017 (ENT-70)” for “0.08 (CVB-3)”, “2×10^4” for “4×10^4”

[4] = target: T2, Rhinovirus 3C protease (RVP) serotype-14 (Human rhinovirus 14, UniProt P03303); assay: Inhibition of Rhinovirus Protease, serotype 14 (FRET assay); format: biochemical; conditions: read-out: kobs/I
T2 construct: Recombinant Rhinovirus 3C proteases from serotypes 14, 16, 2 or 89 were prepared; made in house
T2 sequence (P03303 1538-1719): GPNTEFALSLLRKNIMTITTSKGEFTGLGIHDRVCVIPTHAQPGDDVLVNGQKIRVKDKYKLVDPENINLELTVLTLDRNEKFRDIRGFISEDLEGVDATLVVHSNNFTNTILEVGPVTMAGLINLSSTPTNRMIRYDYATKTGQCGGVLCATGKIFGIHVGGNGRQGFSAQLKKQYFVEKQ
How it was run: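 Recombinant HRV 3C protease (50–100 nM) in 50 mM tris pH 7.6, 1 mM EDTA, 2% DMSO, with ~1 μM DABCYL-GRAVFQGPVG-EDANS FRET substrate; cleavage read as fluorescence increase. Ki: compound and enzyme preincubated 10 min at 30° C before substrate start; kobs/I from enzyme-start progress curves. Values are percent inhibition at stated μM, or Ki.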

[5] = in vitro; format: cell-based; conditions: human, hi-hela cells
Method: as §1, §2

[6] = in vitro; format: cell-based; conditions: human, hi-hela cells; remark: listed apart in the source
How it was run: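 HI-HeLa cells infected with HRV-14 at m.o.i. 0.13 or mock-infected, incubated with compounds for two days; XTT/PMS formazan read at 450/650 nm. EC50 as concentration restoring formazan to 50% of mock-infected level; CC50 from mock-infected cells; TI = CC50/EC50.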

[7] = test system: ENT-70; assay: Enterovirus-70 MRC5 Cell Culture Assay; format: cell-based, Enterovirus strain 70
Method: as §3
as §1, with “ECHO-11” for “CVA-21”, “ENT-70” for “CVB-3”, “MRC5” for “HI-HeLa”, “0.0013 (ECHO-11)” for “0.05 (CVA-21)”, “0.0017 (ENT-70)” for “0.08 (CVB-3)”, “2×10^4” for “4×10^4”

With `CCOC(=O)/C=C/[C@H](CCC(N)=O)NC(=O)[C@H](Cc1ccccc1)N(C)C(=O)[C@H](CC(C)C)NC(=O)OCc1ccccc1` [Compound 2, Ethyl-3-(CBZ-L-Leu-L-N-Me-Phe-L-Gln)-E-Propenoate] the kinact/KI [1] was 1040 M⁻¹ s⁻¹, the EC50 ([2]; 24 h, CVA-21 infection of Hi-HeLa cells, XTT, one day) was 3.3 µM and the TI ([2]; CC50/EC50, CVA-21) was 17. It also gave a TI ([3]; CC50/EC50, ECHO-11, 1440 min) of 18, an EC50 ([3]; Echovirus, 24 h, ECHO-11 infection of MRC5 cells, XTT, one day) of 3.1 µM and a kinact/KI [4] of 5300 M⁻¹ s⁻¹. For the same molecule, the CC50 at 24 h [5] was 56 µM, the CC50 at 48 h [6] was 56 µM and the TI ([7]; CC50/EC50, ENT-70, 1440 min) was 93. The EC50 ([7]; Enterovirus, 24 h, ENT-70 infection of MRC5 cells, XTT, one day) was 0.6 µM.
